From EP3046573B1, “AMYLIN ANALOGUES” (Zealand Pharma A/S, priority 2013, dated 2015)
pEC50: −log10 of the molar value. Where two headings read alike, the source gives them in different places. Numbered stars: 1 amine (or outer) side, 2 acyl side, 3 side chain; on linkers, the order of the positions; unused ones are H or OH. Bridge positions count the residues as written; N and C are the ends. Square brackets hold non-standard residues; d marks the D form. Peptide text beside a SMILES is read from it. * marks the point of attachment. C20 diacid = O=C(O)CCCCCCCCCCCCCCCCCCC(=O)*; γGlu = O=C(O)[C@H](CCC(=O)[*:2])N[*:1]; NMeI = CC[C@H](C)[C@H](NC)C(=O)O; Sar = CNCC(=O)O

Tests used:
[1] = molecular target: T1, human amylin receptor 3 (hAMYR3) consisting of hCTR2 co-expressed with human Receptor Activity Modifying Protein 3 (hRAMP3) (Homo sapiens, UniProt O60896+P30988); assay: hAMYR3 assay: induction of cAMP (AlphaScreen cAMP Assay kit) in COS7 cells expressing hAMYR3; format: cell-based
T1 construct: expressed in transfected cells
T1 sequence (P30988 25-474): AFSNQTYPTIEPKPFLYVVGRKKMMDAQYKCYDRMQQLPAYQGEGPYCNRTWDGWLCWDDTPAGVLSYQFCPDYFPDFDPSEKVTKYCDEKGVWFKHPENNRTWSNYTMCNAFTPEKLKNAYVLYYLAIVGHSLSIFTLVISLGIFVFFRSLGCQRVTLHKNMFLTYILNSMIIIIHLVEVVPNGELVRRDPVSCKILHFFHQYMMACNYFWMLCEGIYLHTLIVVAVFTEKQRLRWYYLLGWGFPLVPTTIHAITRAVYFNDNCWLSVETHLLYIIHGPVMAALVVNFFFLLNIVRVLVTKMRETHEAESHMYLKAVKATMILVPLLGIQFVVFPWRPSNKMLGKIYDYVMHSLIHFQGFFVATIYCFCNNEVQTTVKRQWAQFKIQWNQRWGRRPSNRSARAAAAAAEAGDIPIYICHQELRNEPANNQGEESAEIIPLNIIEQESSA
T1 sequence (O60896 24-148 partner): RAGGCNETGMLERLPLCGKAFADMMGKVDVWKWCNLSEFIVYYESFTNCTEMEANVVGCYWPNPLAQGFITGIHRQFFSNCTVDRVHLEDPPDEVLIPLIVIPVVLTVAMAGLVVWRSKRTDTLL
Outline: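 Stable COS7 clone co-expressing hCTR2 and hRAMP3, stimulated 15 min at 37° C with increasing peptide in Tyrode buffer pH 7.4 with 100 µM IBMX and 0.1% casein. cAMP measured by AlphaScreen after lysis; EC50 and % efficacy versus pramlintide from 4PL fit.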

[2] = molecular target: T2, human calcitonin receptor (hCTR2) (Homo sapiens, UniProt P30988); assay: hCTR2 assay: induction of cAMP (AlphaScreen cAMP Assay kit) in COS7 cells expressing hCTR2; format: cell-based
T2 construct: expressed in transfected cells
T2 sequence (P30988 25-474): T1 sequence (P30988 25-474)
Outline: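 COS7 stable hCTR2 clone (RAMP-free); peptide dose-response 15 min 37° C in Tyrode pH 7.4 + 100 µM IBMX + 0.1% casein; lysis 10 min RT; AlphaScreen cAMP; 4PL fit.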

[3] = Solubility assessment (turbidity absorbance at 325 nm); format: physicochemical; details: stock 2 mg/ml diluted 1:1, ambient temperature (typically 25°C), n=1; for Solubility, Acetate buffer pH 4: 100 mM acetate buffer pH 4.0; for Solubility, Acetate buffer pH 5: 100 mM acetate buffer pH 5.0; for Solubility, Histidine buffer pH 6: 100 mM histidine buffer pH 6.0; for Solubility, Histidine buffer pH 7: 100 mM histidine buffer pH 7.0; for Solubility, Phosphate buffer pH 6: 100 mM phosphate buffer pH 6.0; for Solubility, Phosphate buffer pH 7: 100 mM phosphate buffer pH 7.0; for Solubility, Phosphate buffer pH 7.5: 100 mM phosphate buffer pH7.5
Outline: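 Peptide stock (2 mg/ml, water pH 2.5) diluted 1:1 into 100 mM acetate (pH 4.0, 5.0), histidine (pH 6.0, 7.0) or phosphate (pH 6.0–7.5) buffer; absorbance at 325 nm read at about 25°C, n=1. A325 ≤ 0.02 taken as solubility ≥ 1 mg/ml.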

[4] = cAMP induction in COS7 cells expressing hAMYR3, average of a minimum of 3 determinations, read-out: hAMY R3 EC50
[5] = cAMP induction in COS7 cells expressing hCTR2, average of a minimum of 3 determinations, read-out: hCTR2 EC50

Solubility, Acetate buffer pH 4 [3] | Solubility, Acetate buffer pH 5 [3] | Solubility, Histidine buffer pH 6 [3] | Solubility, Histidine buffer pH 7 [3] | Solubility, Phosphate buffer pH 6 [3] | Solubility, Phosphate buffer pH 7 [3] | Solubility, Phosphate buffer pH 7.5 [3] | pEC50 [1, 4] | pEC50 [2, 5] | Compound | pEC50 [1] | pEC50 [2]
SS (SS indicates solubility ≥ 1mg/ml) | II (II indicates solubility ≤ 1 mg/ml) | SS (SS indicates solubility ≥ 1mg/ml) | SS (SS indicates solubility ≥ 1mg/ml) | SS (SS indicates solubility ≥ 1mg/ml) | SS (SS indicates solubility ≥ 1mg/ml) | SS (SS indicates solubility ≥ 1mg/ml) | 9.85 | 10.14 | CC[C@H](C)[C@@H](C(=O)N[C@@H](CC(C)C)C(=O)N[C@@H](CO)C(=O)N[C@@H](CO)C(=O)N[C@H](C(=O)N[C@@H](CC(=O)O)C(=O)N[C@H](C(=O)NCC(=O)N[C@@H](CO)C(=O)N[C@@H](CC(=O)O)C(=O)N[C@H](C(=O)N1CCC[C@H]1C(N)=O)[C@@H](C)O)C(C)C)[C@@H](C)O)N(C)C(=O)[C@H](C)NC(=O)CN(C)C(=O)[C@H](Cc1ccccc1)NC(=O)[C@H](CO)NC(=O)[C@H](CO)NC(=O)[C@H](CO)NC(=O)[C@H](CO)NC(=O)[C@H](CCCNC(=N)N)NC(=O)[C@H](Cc1c[nH]cn1)NC(=O)[C@H](CC(C)C)NC(=O)[C@H](Cc1ccccc1)NC(=O)[C@H](CCC(=O)O)NC(=O)[C@H](C)NC(=O)[C@H](CC(C)C)NC(=O)[C@H](CCCNC(=N)N)NC(=O)[C@H](CCC(N)=O)NC(=O)[C@@H](NC(=O)[C@H](C)NC(=O)[C@@H]1CSSC[C@H](NC(=O)[C@H](CCCNC(=N)N)NC(=O)CC[C@H](NC(=O)CCCCCCCCCCCCCCCCCCC(=O)O)C(=O)O)C(=O)N[C@@H](CC(N)=O)C(=O)N[C@@H]([C@@H](C)O)C(=O)N[C@@H](C)C(=O)N[C@@H]([C@@H](C)O)C(=O)N1)[C@@H](C)O [Compound 73, [19CD]-isoGlu-RC()NTATC()ATQRLAEFLHRSSSSF-Gly(Me)-A-Ile(Me)-LSSTDVGSDTP-NH2] ({C20 diacid-γGlu}-RCNTATCATQRLAEFLHRSSSSF[Sar]A[NMeI]LSSTDVGSDTP-NH2; disulfide 2-7) |  | 
SS (SS indicates solubility ≥ 1mg/ml) | II (II indicates solubility ≤ 1 mg/ml) | SS (SS indicates solubility ≥ 1mg/ml) | SS (SS indicates solubility ≥ 1mg/ml) | SS (SS indicates solubility ≥ 1mg/ml) | SS (SS indicates solubility ≥ 1mg/ml) | SS (SS indicates solubility ≥ 1mg/ml) | 9.62 | 9.72 | CC[C@H](C)[C@@H](C(=O)N[C@@H](CC(C)C)C(=O)N[C@@H](CO)C(=O)N[C@@H](CO)C(=O)N[C@H](C(=O)N[C@@H](CCC(=O)O)C(=O)N[C@H](C(=O)NCC(=O)N[C@@H](CO)C(=O)N[C@@H](CCC(=O)O)C(=O)N[C@H](C(=O)N1CCC[C@H]1C(N)=O)[C@@H](C)O)C(C)C)[C@@H](C)O)N(C)C(=O)[C@H](C)NC(=O)CN(C)C(=O)[C@H](Cc1ccccc1)NC(=O)[C@H](CO)NC(=O)[C@H](CO)NC(=O)[C@H](CO)NC(=O)[C@H](CO)NC(=O)[C@H](CCCNC(=N)N)NC(=O)[C@H](Cc1c[nH]cn1)NC(=O)[C@H](CC(C)C)NC(=O)[C@H](Cc1ccccc1)NC(=O)[C@H](CCC(=O)O)NC(=O)[C@H](C)NC(=O)[C@H](CC(C)C)NC(=O)[C@H](CCCNC(=N)N)NC(=O)[C@H](CCC(N)=O)NC(=O)[C@@H](NC(=O)[C@H](C)NC(=O)[C@@H]1CSSC[C@H](NC(=O)[C@H](CCCNC(=N)N)NC(=O)CC[C@H](NC(=O)CCCCCCCCCCCCCCCCCCC(=O)O)C(=O)O)C(=O)N[C@@H](CC(N)=O)C(=O)N[C@@H]([C@@H](C)O)C(=O)N[C@@H](C)C(=O)N[C@@H]([C@@H](C)O)C(=O)N1)[C@@H](C)O [Compound 76, [19CD]-isoGlu-RC()NTATC()ATQRLAEFLHRSSSSF-Gly(Me)-A-Ile(Me)-LSSTEVGSETP-NH2] ({C20 diacid-γGlu}-RCNTATCATQRLAEFLHRSSSSF[Sar]A[NMeI]LSSTEVGSETP-NH2; disulfide 2-7) |  | 
SS (SS indicates solubility ≥ 1mg/ml) | SS (SS indicates solubility ≥ 1mg/ml) | SS (SS indicates solubility ≥ 1mg/ml) | SS (SS indicates solubility ≥ 1mg/ml) | SS (SS indicates solubility ≥ 1mg/ml) | SS (SS indicates solubility ≥ 1mg/ml) | SS (SS indicates solubility ≥ 1mg/ml) | 9.92 | 10.15 | CC[C@H](C)[C@@H](C(=O)N[C@@H](CC(C)C)C(=O)N[C@@H](CO)C(=O)N[C@@H](CO)C(=O)N[C@H](C(=O)N[C@@H](CCC(=O)O)C(=O)N[C@H](C(=O)NCC(=O)N[C@@H](CO)C(=O)N[C@@H](CCC(=O)O)C(=O)N[C@H](C(=O)N1CCC[C@H]1C(N)=O)[C@@H](C)O)C(C)C)[C@@H](C)O)N(C)C(=O)[C@H](C)NC(=O)CN(C)C(=O)[C@H](Cc1ccccc1)NC(=O)[C@H](CO)NC(=O)[C@H](CO)NC(=O)[C@H](CCCNC(=N)N)NC(=O)[C@H](Cc1c[nH]cn1)NC(=O)[C@H](CC(C)C)NC(=O)[C@H](Cc1ccccc1)NC(=O)[C@H](CCC(=O)O)NC(=O)[C@H](C)NC(=O)[C@H](CC(C)C)NC(=O)[C@H](CCCNC(=N)N)NC(=O)[C@H](CCC(N)=O)NC(=O)[C@@H](NC(=O)[C@H](C)NC(=O)[C@@H]1CSSC[C@H](NC(=O)[C@H](CCCNC(=N)N)NC(=O)CC[C@H](NC(=O)CCCCCCCCCCCCCCCCCCC(=O)O)C(=O)O)C(=O)N[C@@H](CC(N)=O)C(=O)N[C@@H]([C@@H](C)O)C(=O)N[C@@H](C)C(=O)N[C@@H]([C@@H](C)O)C(=O)N1)[C@@H](C)O [Compound 82, [19CD]-isoGlu-RC()NTATC()ATQRLAEFLHRSSF-Gly(Me)-A-Ile(Me)-LSSTEVGSETP-NH2] ({C20 diacid-γGlu}-RCNTATCATQRLAEFLHRSSF[Sar]A[NMeI]LSSTEVGSETP-NH2; disulfide 2-7) |  | 

Compound | Solubility, Acetate buffer pH 4 [3] | Solubility, Acetate buffer pH 5 [3] | Solubility, Histidine buffer pH 6 [3] | Solubility, Histidine buffer pH 7 [3] | Solubility, Phosphate buffer pH 6 [3] | Solubility, Phosphate buffer pH 7 [3] | Solubility, Phosphate buffer pH 7.5 [3] | pEC50 [1, 4] | pEC50 [2, 5] | pEC50 [1] | pEC50 [2]
CC[C@H](C)[C@@H](C(=O)N[C@@H](CC(C)C)C(=O)N[C@H](CO)C(=O)N[C@@H](CO)C(=O)N[C@H](C(=O)N[C@@H](CC(N)=O)C(=O)N[C@H](C(=O)NCC(=O)N[C@@H](CO)C(=O)N[C@@H](CC(N)=O)C(=O)N[C@H](C(=O)N1CCC[C@H]1C(N)=O)[C@@H](C)O)C(C)C)[C@@H](C)O)N(C)C(=O)[C@H](C)NC(=O)CN(C)C(=O)[C@@H](Cc1ccccc1)NC(=O)[C@H](CC(N)=O)NC(=O)[C@H](CC(N)=O)NC(=O)[C@H](CO)NC(=O)[C@H](CO)NC(=O)[C@H](CCCNC(=N)N)NC(=O)[C@H](Cc1c[nH]cn1)NC(=O)[C@H](CC(C)C)NC(=O)[C@H](Cc1ccccc1)NC(=O)[C@H](CCC(=O)O)NC(=O)[C@H](C)NC(=O)[C@H](CC(C)C)NC(=O)[C@H](CCCNC(=N)N)NC(=O)[C@H](CCC(N)=O)NC(=O)[C@@H](NC(=O)[C@H](C)NC(=O)[C@@H]1CSSC[C@H](NC(=O)[C@H](CCCCN)NC(=O)CC[C@H](NC(=O)CCCCCCCCCCCCCCCCCCC(=O)O)C(=O)O)C(=O)N[C@@H](CC(N)=O)C(=O)N[C@@H]([C@@H](C)O)C(=O)N[C@@H](C)C(=O)N[C@@H]([C@@H](C)O)C(=O)N1)[C@@H](C)O [Compound 72, [19CD]-isoGlu-KC()NTATC()ATQRLAEFLHRSSNN-DPhe-Gly(Me)-A-Ile(Me)-L-DSer-STNVGSNTP] ({C20 diacid-γGlu}-KCNTATCATQRLAEFLHRSSNN[dF][Sar]A[NMeI]L[dS]STNVGSNTP-NH2; disulfide 2-7) | SS (SS indicates solubility ≥ 1mg/ml) | SS (SS indicates solubility ≥ 1mg/ml) | SS (SS indicates solubility ≥ 1mg/ml) | SS (SS indicates solubility ≥ 1mg/ml) | SS (SS indicates solubility ≥ 1mg/ml) | SS (SS indicates solubility ≥ 1mg/ml) | SS (SS indicates solubility ≥ 1mg/ml) |  |  | 10.01 | 10.15
